Experiments:
[1] = tested on: Hedgehog pathway signaling (Shh-induced Gli-transcription) in 10T1/2(s12) cells; assay: Gli-Luc assay, OCT-SHH-induced luciferase reporter; assay type: cell-based, mouse; conditions: Gli-Luc response, OCT-SHH 0.3 μg/ml
Procedure: Compounds to be tested are dissolved in DMSO to a concentration of 10 mM, and stored at −20° C. To activate the Hedgehog pathway in the assay cells, an octylated (lipid-modified) form of the N-terminal fragment of the Sonic Hedgehog protein (OCT-SHH) is used. This N-terminal SHH fragment is produced bacterially.
Compounds may be tested in the “Gli-Luc” assay below, using the cell line 10T(s12), wherein the cells contain a Hedgehog-responsive reporter construct utilizing Luciferase as the reporter gene. In this way, Hedgehog pathway signaling activity can be measured via the Gli-Luc response.
10t1/2(s12) cells are plated in a 96-well micro-titer plate (MTP) at 20,000 cells/well in full medium [DMEM with 10% FBS]. Then plates are placed in the incubator for incubation overnight (O/N), at 37° C. and 5% CO2. After 24 h, the medium is replaced with Luciferase-assay medium (DMEM with 0.5% FBS). Compounds are thawed and diluted in assay medium at 3:1000 (about 300-fold) resulting in a starting concentration of about 30 μM.
Subsequently, 150 μl of each 30 μM sample is added to the first wells (in triplicate). The MTP samples are then diluted at 3-fold dilutions to a total of seven wells, ultimately resulting in a regiment of seven dilutions in triplicate, for each compound. Next, the protein ligand OCT-SHH is diluted in Luciferase-assay medium and added to each well at a final concentration of 0.3 μg/ml. Plates are then returned to the incubator for further incubation O/N, at 37° C. and 5% CO2. After about 24 h, plates are removed from the incubator and the medium is aspirated/discarded. Wells are washed once with assay buffer [PBS+1 mM Mg^2+ and 1 mM Ca^2+]. Then 50 μl of assay buffer is added to each well. The Luciferase assay reagent is prepared as described by the vendor (LucLite kit from Packard), and 50 μl is added to each well. Plates are incubated at room temperature (RT) for about 30 minutes after which the signals are read, again at RT, on a Topcount (Packard).
The discovery of compounds that inhibit Shh-induced Gli-transcription exemplifies the utility of the claims in this patent.

mouse cornea = assay: mouse corneal pocket model of angiogenesis; assay type: in vivo
Procedure: To confirm the angiogenic activity of hedgehog in another well accepted model of angiogenesis, we tested the ability of hedgehog protein to induce neovascularization in the mouse corneal model pocket model of angiogenesis.
Animals were anesthetized by pentobarbital intraperitoneal injection (160 mg/kg). Corneal pockets were created in the eyes of each mouse and a 0.34×0.34 mm sucrose albumin sulfate (Bukh Meditec, Vaerlose, DK) pellet coated with hydron polymer type NCC (Interferon Sciences, New Brunswick, N.J.) containing 1 of the agents indicated below was implanted into the corneal pocket. […] mice were divided into 5 groups: control buffer alone; VEGF 300 ng/pellet; Myr-Shh vehicle alone; Myr-Shh 1.5 microg/pellet […]; Myr-Shh+VEGF (1.5 microg/pellet +300 ng/pellet, respectively). Pellets were positioned 1.0 mm from the corneal limbus, and erythromycin ophthalmic ointment (E. Fourera) was applied to each operated eye. The corneas of all mice were routinely examined by slit-lamp biomicroscopy on postoperative day 6 after pellet implantation.
On the same day vessel length and corneal circumferential neovascularity (in degrees) were measured. After completing these measurements, C57BL/6J mice received an intravenous injection of […] of BS-1 lectin FITC-conjugated (Vector Laboratories, Burlingame, Calif.). Thirty minutes later, the animals were sacrificed. The eyes were enucleated and fixed in 1% paraformaldehyde solution. After fixation, the corneas were placed on glass slides and examined by fluorescence microscopy.
To determine the mechanism by which Shh induces angiogenesis both Shh and VEGF-stimulated corneas (see Example 3) were excised and X-gal stained as described in Example 1 after fixation of the whole eye for 1 hour in 1% paraformaldehyde followed by enucleation and fixation of the corneal hemisphere in 1% paraformaldehyde for 30 minutes. […] Endothelial cell immunostaining was done with a rat monoclonal antibody against mouse CD-31 (Pharmigen, San Diego, Calif.) followed by a biotinylated goat anti-rat immunoglobulin secondary antibody. Smooth muscle cells and pericytes were identified with a mouse monoclonal antibody against SM a-actin conjugated with alkaline-phosphatase (Sigma, St. Louis, Mo.) and fibroblasts were identified using an anti-vimentin antibody (Sigma, St. Louis, Mo.).
We then immunostained the Shh-induced corneas with a rabbit polyclonal anti-VEGF antibody (Santa Cruz Biotechnology, Santa Cruz, Calif.) with a biotinylated goat anti-rabbit immunoglobulin as secondary antibody.

[2] = pellet: Myr-Shh 1.5 microg or VEGF 300 ng

Row | Compound | IC50 [1] [µM] | also measured
1 | CC(c1nc2ccccc2c(=O)n1-c1ccc(F)cc1)N(C)C(=O)Nc1ccc(Cl)c(C(F)(F)F)c1 (stereo not drawn) [Compound 61] | < 1 | 
2 | Cc1c(NC(=O)NCc2nc3ccccc3c(=O)n2-c2ccc(F)cc2)cccc1SC(F)(F)F [Compound 67] | < 5 | 
3 | CC(c1nc2ccccc2c(=O)n1-c1ccc(F)cc1)N(C)C(=O)Nc1cccc(C#N)c1 (stereo not drawn) [Compound 51] | < 5 | 
4 | CC(c1nc2ccccc2c(=O)n1-c1ccc(F)cc1)N(C)C(=O)Nc1ccc(Cl)c(Cl)c1 (stereo not drawn) [Compound 53] | < 1 | 
5 | O=C(Nc1cccc(C(F)(F)F)c1)NC(c1nc2ccccc2c(=O)n1-c1ccc(F)cc1)C1CC1 (stereo not drawn) [Compound 75] | < 5 | 
6 | CCCN(C(=O)Nc1cccc(Cl)c1)C(C)c1nc2ccccc2c(=O)n1-c1ccc(F)cc1 (stereo not drawn) [Compound 34] | < 5 | 
7 | CC(NC(=O)Nc1cccc(C(F)(F)F)c1)c1nc2ccccc2c(=O)n1-c1ccc(F)cc1 (stereo not drawn) [Compound 73] | < 5 | 
8 | O=C(NCc1nc2ccccc2c(=O)n1-c1ccc(F)cc1)Nc1ccc(Cl)c(C(F)(F)F)c1 [Compound 5] | < 0.1 | 
9 | CCC(c1nc2ccccc2c(=O)[nH]1)N1CCN(C(=O)c2ccc(-c3ccccc3)cc2)C(C)C1 (stereo not drawn) [Compound 46] | < 0.5 | 
10 | O=C(NCCCc1nc2ccccc2c(=O)n1-c1ccc(F)cc1)Nc1cccc(C(F)(F)F)c1 [Compound 74] | < 5 | 
11 | CC(c1nc2ccccc2c(=O)n1-c1ccc(F)cc1)N1CCN(C(=O)Nc2ccc(Cl)c(Cl)c2)CC1 (stereo not drawn) [Compound 43] | < 10 | 
12 | CC(C)c1cccc(NC(=O)N(C)C(C)c2nc3ccccc3c(=O)n2-c2ccc(F)cc2)c1 (stereo not drawn) [Compound 57] | < 10 | 
13 | COc1cccc(NC(=O)NCc2nc3ccccc3c(=O)n2-c2ccc(F)cc2)c1C [Compound 71] | < 10 | 
14 | CCOC(=O)c1ccccc1NC(=O)N(C)C(C)c1nc2ccccc2c(=O)n1-c1ccc(F)cc1 (stereo not drawn) [Compound 63] | < 10 | 
15 | CCCN(C(=O)Nc1cccc(C(F)(F)F)c1)C(C)c1nc2ccccc2c(=O)n1-c1ccc(F)cc1 (stereo not drawn) [Compound 36] | < 5 | 
16 | CC(c1nc2ccccc2c(=O)n1-c1ccc(F)cc1)N(C)C(=O)Nc1ccc([N+](=O)[O-])c(Cl)c1 (stereo not drawn) [Compound 62] | < 1 | 
17 | CCCN(C(=O)Nc1cccc(OC)c1)C(C)c1nc2ccccc2c(=O)n1-c1ccc(F)cc1 (stereo not drawn) [Compound 38] | < 5 | 
18 | CC(c1nc2ccccc2c(=O)n1-c1ccc(F)cc1)N(C)C(=O)Nc1cccc(SC(F)(F)F)c1 (stereo not drawn) [Compound 52] | < 1 | 
19 | CCC(c1nc2ccccc2c(=O)[nH]1)N1CCN(C(=O)Nc2ccc(Cl)c(Cl)c2)C(C)C1 (stereo not drawn) [Compound 45] | < 5 | 
20 | CC(c1nc2ccccc2c(=O)n1-c1ccc(F)cc1)N(C)C(=O)Nc1ccc(-c2ccccc2)cc1 (stereo not drawn) [Compound 56] | < 10 | 
21 | CCOOC(=O)c1cccc(NC(=O)N(C)C(C)c2nc3ccccc3c(=O)n2-c2ccc(F)cc2)c1 (stereo not drawn) [Compound 65] | < 10 | 
22 | CC(c1nc2ccccc2c(=O)n1-c1ccc(F)cc1)N(C)C(=O)Nc1cccc(F)c1 (stereo not drawn) [Compound 55] | < 5 | 

Row | Compound | IC50 [1] [µM] | also measured
23 | O=C(NCc1nc2ccccc2c(=O)n1-c1ccc(F)cc1)Nc1cccc(C(F)(F)F)c1 [Compound 44] | < 1 | 
24 | CCCN(CCC(=O)NC1CCCc2ccccc21)C(=O)c1cc(OC)cc(OC)c1 (stereo not drawn) [Compound 47] | < 5 | 
25 | CCCCc1ccc(C(=O)N(Cc2ccccc2)C(CC)c2nc3ccccc3c(=O)n2-c2ccc(C)cc2)cc1 (stereo not drawn) [Compound 40] | < 10 | 
26 | CCCCCCCCC(=O)N(CCCCC)C(C)c1nc2ccccc2c(=O)n1-c1ccccc1 (stereo not drawn) [Compound 41] | < 10 | 
27 | CC(c1nc2ccccc2c(=O)n1-c1ccc(F)cc1)N(C)C(=O)Nc1ccc(SC(F)(F)F)cc1 (stereo not drawn) [Compound 60] | < 5 | 
28 | VEGF [reference compound] |  | X-gal staining (Ptc 1 expression) of corneas (mouse cornea; Ptc1-lacZ corneas): did not stain with X-gal; mean number of vascular lumens per cross section (mouse cornea; compared with Shh): higher; maximum vessel lengths (mouse cornea; [2]): 700±70 um; vessel diameters (mean) (mouse cornea; [2]): 8±3 um; neovascular growth (mouse cornea; pellet: Myr-Shh 1.5 microg or VEGF 300 ng, day 6): significant neovascular growth
29 | CC(c1nc2ccccc2c(=O)n1-c1ccc(F)cc1)N(C)C(=O)Nc1ccc(C(F)(F)F)cc1 (stereo not drawn) [Compound 54] | < 5 | 
30 | O=C(NCc1nc2ccccc2c(=O)n1-c1ccc(F)cc1)Nc1cc(Cl)nc(Cl)c1 [Compound 6] | < 0.5 | 
31 | CCC(C)N(CCC(=O)NC1CCCc2ccccc21)C(=O)c1cccc2ccccc12 (stereo not drawn) [Compound 48] | < 0.5 | 
32 | CCC(C)N(CCC(=O)NC1CCCc2ccccc21)C(=O)COc1ccc(Cl)cc1 (stereo not drawn) [Compound 49] | < 1 | 
33 | CC(c1nc2ccccc2c(=O)n1-c1ccc(F)cc1)N(C)C(=O)Nc1cccc(C(F)(F)F)c1 (stereo not drawn) [Compound 11] | < 5 | 
34 | O=C(Cc1cccc(C(F)(F)F)c1)NCCc1nc2ccccc2c(=O)n1-c1ccc(F)cc1 [Compound 50] | < 1 | 
35 | Cc1c(NC(=O)N(C)C(C)c2nc3ccccc3c(=O)n2-c2ccc(F)cc2)cccc1[N+](=O)[O-] (stereo not drawn) [Compound 59] | < 5 | 
36 | CC(c1nc2ccccc2c(=O)n1-c1ccc(F)cc1)N(C)C(=O)Nc1ccc([N+](=O)[O-])cc1Cl (stereo not drawn) [Compound 64] | < 10 | 
37 | CC(c1nc2ccccc2c(=O)n1-c1ccc(F)cc1)N(C)C(=O)Nc1ccc([N+](=O)[O-])c(C(F)(F)F)c1 (stereo not drawn) [Compound 32] | < 5 | 
38 | CC(c1nc2ccccc2c(=O)n1-c1ccc(F)cc1)N(C)C(=O)Nc1cc(Cl)nc(Cl)c1 (stereo not drawn) [Compound 58] | < 5 | 
39 | CCC(c1nc2ccccc2c(=O)n1-c1ccc(C)cc1)N(CCc1ccccc1)C(=O)CCCCF (stereo not drawn) [Compound 39] | < 5 | 
40 | O=C(NCc1nc2ccccc2c(=O)n1-c1ccc(F)cc1)Nc1ccc(Cl)c([N+](=O)[O-])c1 [Compound 69] | < 0.5 | 
41 | O=C(NCc1nc2ccccc2c(=O)n1-c1ccc(F)cc1)Nc1ccc(Cl)c(Cl)c1 [Compound 68] | < 1 | 
42 | CC(c1nc2ccccc2c(=O)n1-c1ccc(F)cc1)N(C)C(=O)Nc1ccc(Cl)cc1[N+](=O)[O-] (stereo not drawn) [Compound 66] | < 10 | 
43 | CCC(=O)N1CCN(C(CC)c2nc3ccccc3c(=O)n2-c2ccc(C)cc2)C(C)C1 (stereo not drawn) [Compound 42] | < 5 | 
44 | CC(c1nc2ccccc2c(=O)n1-c1ccc(F)cc1)N(Cc1ccco1)C(=O)Nc1cccc(F)c1 (stereo not drawn) [Compound 31] | < 10 | 

Reference: US7498304B2, “Angiogenesis-modulating compositions and uses” (Curis, Inc., priority 2002, dated 2009)
